Experimental data taken from US11285218B2, “Degradation of bromodomain-containing protein 9 (BRD9) by conjugation of BRD9 inhibitors with E3 ligase ligand and methods of use” (Dana-Farber Cancer Institute, Inc., priority 2016, dated 2022).
Entries after “also recorded” stand apart in the source; their conditions may differ.

Columns and labels:
[1] = biological target: BRD4:CRBN-DDB1 protein complex (Homo sapiens, UniProt O60885+Q96SW2); assay: CRBN-DDB1/BRD4 dimerization assay (luminescence); conditions: in words
Method: (§2) To detect CRBN-DDBI/BRD4 dimerization, we adapted bead-based AlphaScreen technology. […] Compounds were then pinned at 100 nL per well from DMSO stock. After 1 incubation at room temperature. Nickel Chelate AlphaLISA Acceptor and Glutathione AlphaLISA Donor beads (PerkinElmer) were diluted in assay buffer to 20 μg/mL and added at 20 μl per well.

BRD9 [2] = biological target: T1, BRD9 (Homo sapiens, UniProt Q9H8M2); assay: BRD9 immunoblot in MM1S CRBN knockout cells; conditions: MM.1S CRBN knockout cell line, 4 hour treatment, indicated doses
T1 sequence (Q9H8M2 1-597): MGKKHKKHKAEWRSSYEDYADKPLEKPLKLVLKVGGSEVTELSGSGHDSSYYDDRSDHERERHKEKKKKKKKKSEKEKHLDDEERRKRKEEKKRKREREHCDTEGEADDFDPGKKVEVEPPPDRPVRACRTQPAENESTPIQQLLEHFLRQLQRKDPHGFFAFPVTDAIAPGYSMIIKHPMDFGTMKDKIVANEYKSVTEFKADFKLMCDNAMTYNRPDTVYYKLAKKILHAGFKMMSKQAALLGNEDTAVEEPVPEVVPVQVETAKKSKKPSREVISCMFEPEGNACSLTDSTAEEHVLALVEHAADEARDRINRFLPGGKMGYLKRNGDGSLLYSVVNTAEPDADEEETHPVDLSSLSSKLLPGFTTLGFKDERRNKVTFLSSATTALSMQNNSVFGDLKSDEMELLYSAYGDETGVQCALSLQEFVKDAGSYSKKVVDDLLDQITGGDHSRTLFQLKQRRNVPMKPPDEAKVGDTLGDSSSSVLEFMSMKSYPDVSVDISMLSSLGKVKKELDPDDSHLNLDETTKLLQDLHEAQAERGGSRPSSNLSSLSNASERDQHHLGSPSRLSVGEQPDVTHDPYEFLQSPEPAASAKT
Method: (§3) In additional experiments, cells were washed with PBS, before being lysed in RIPA buffer supplemented with 1×HALT™ protease inhibitor cocktail (Thermo Scientific) for 10 min on ice, followed by low-amplitude sonication for 10 seconds at 4° C. […] In soluble material was removed by centrifugation at 20,000×g for 20 min before protein content was quantified by BCA assay (Pierce). […] Blots were imaged using fluorescence-labeled secondary antibodies (LI-COR) on the OdysseyCLxImager (LI-COR).

BRD9 [3] = biological target: T1, BRD9; assay: BRD9 degradation / cellular activity (Western blot, cell line not stated); conditions: cell line not given
[4] = biological target: BRD9:CRBN-DDB1 protein complex (Homo sapiens, UniProt Q96SW2+Q9H8M2); assay: BRD9:CRBN-DDB1 dimerization assay (luminescence); conditions: for formation of the BRD9:CRBN-DDB1 protein complex: in words
Method: To measure this activity, a homogenous luminescence assay was developed to report on compound-induced proximity of BRD9 and CRBN.
as §2

BRD9 [5] = biological target: T1, BRD9; assay: BRD9 immunoblot in MOLM-13
Method: as §3

MV411 cell line = assay: ATPlite viability assay, MV4;11; conditions: MV4;11, 72 hours; in words
Method: 500 cells/well were plated at a volume of 40 μL/well in white tissue culture treated 384 well assay plates (Thermo Scientific) before DMSO compound stock was added from pre-diluted plates by pin transfer using a Janus Workstation (PerkinElmer, USA). […] Assay plates were allowed to equilibrate to RT for 30 min before reconstituted ATPlite 1 Step reagent (Perkin Elmer) was dispensed at 1:1 volume/well by EL406 automated liquid handler (Biotek, USA).

TRIM33 (PHD, Bromo.) = assay: BromoScan single-point screen; assay type: binding, human; conditions: percent of protein captured on solid support vs control
Text: (§1) The BromoScan is an assay that measures the engagement of compounds with bromodomain proteins by utilizing DNA-tagged bromodomain and immobilized ligand attached to solid support. In the control test, DNA-tagged bromodomain binds to the ligand and the bromodomain is captured on the solid support. Compounds that compete for the bromodomain binding location on the ligand will prevent the bromodomain from binding, resulting in less protein captured on the solid support.

BRD4(2) = biological target: T2, BRD4(2) (Homo sapiens, UniProt O60885); assay: BromoScan single-point screen; assay type: binding; conditions: percent of protein captured on solid support vs control
T2 construct: utilizing DNA-tagged bromodomain and immobilized ligand attached to solid support
Text: as §1

PCAF = biological target: T3, PCAF (Homo sapiens, UniProt Q92831); assay: BromoScan single-point screen; assay type: binding; conditions: percent of protein captured on solid support vs control
T3 construct: utilizing DNA-tagged bromodomain and immobilized ligand attached to solid support
T3 sequence (Q92831 723-827 limits assumed): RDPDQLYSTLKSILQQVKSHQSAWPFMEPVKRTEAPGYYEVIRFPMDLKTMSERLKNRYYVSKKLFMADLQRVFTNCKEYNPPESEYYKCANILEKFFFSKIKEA
Text: as §1

CREBBP = biological target: T4, CREBBP (Homo sapiens, UniProt Q92793); assay: BromoScan single-point screen; assay type: binding; conditions: percent of protein captured on solid support vs control
T4 construct: utilizing DNA-tagged bromodomain and immobilized ligand attached to solid support
T4 sequence (Q92793 1085-1192 limits assumed): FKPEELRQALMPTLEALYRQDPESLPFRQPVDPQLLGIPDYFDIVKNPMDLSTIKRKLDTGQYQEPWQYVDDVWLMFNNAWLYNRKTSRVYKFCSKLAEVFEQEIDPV
Text: as §1

SMARCA4 = biological target: T5, SMARCA4 (Homo sapiens, UniProt P51532); assay: BromoScan single-point screen; assay type: binding; conditions: percent of protein captured on solid support vs control
T5 construct: utilizing DNA-tagged bromodomain and immobilized ligand attached to solid support
T5 sequence (P51532 1453-1564 limits assumed): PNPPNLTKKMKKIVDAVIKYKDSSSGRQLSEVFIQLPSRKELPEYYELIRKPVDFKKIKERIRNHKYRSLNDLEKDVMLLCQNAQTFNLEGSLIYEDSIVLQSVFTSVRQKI
Text: as §1

BRDT(2) = biological target: T6, BRDT(2) (Homo sapiens, UniProt Q58F21); assay: BromoScan single-point screen; assay type: binding; conditions: percent of protein captured on solid support vs control
T6 construct: utilizing DNA-tagged bromodomain and immobilized ligand attached to solid support
Text: as §1

BRD2(2) = biological target: T7, BRD2(2) (Homo sapiens, UniProt P25440); assay: BromoScan single-point screen; assay type: binding; conditions: percent of protein captured on solid support vs control
T7 construct: utilizing DNA-tagged bromodomain and immobilized ligand attached to solid support
T7 sequence (P25440 344-453 limits assumed): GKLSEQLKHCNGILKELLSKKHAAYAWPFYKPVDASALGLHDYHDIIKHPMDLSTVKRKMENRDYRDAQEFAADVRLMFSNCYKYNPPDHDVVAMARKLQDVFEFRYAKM
Text: as §1

CRBN-DDB1 = biological target: T8, CRBN-DDB1 (Homo sapiens, UniProt Q96SW2); assay: CRBN-DDB1 ligand-displacement AlphaScreen; assay type: binding; conditions: purified CRBN-DDB1 ligand displacement
T8 construct: made in house; host or cells: Sf9 cells (Invitrogen)
Method: Following a 30 min incubation, 20 uL detection solution containing Streptavidin Donor Beads and Nickel Chelate AlphaLISA® Acceptor Beads diluted to 20 ng/uL in assay buffer was added to each well.

[6] = test system: 32 members of the human bromodomain family; assay: BromoScan single-point screen, panel profile; assay type: binding; conditions: single-point 1 μM, 32 bromodomains; in words
Text: as §1

BRD9 [7] = biological target: T1, BRD9; assay: BRD9 immunoblot in MM1S cells
Method: as §3

[8] = luminescence detection of dimerization assay
[9] = MMIS cells, 4 hours pretreatment, then 100 nM

## COc1cc(-c2cn(C)c(=O)c3cc(C(=N)NC4CCS(=O)(=O)CC4)sc23)ccc1OCC(=O)NCCCCCCCCNc1cccc2c1CN(C1CCC(=O)NC1=O)C2=O (stereo not drawn) [Compound I-17]
[1]
  formation of the BRD4:CRBN-DDB1 protein complex: effectively induce biochemical association
BRD9 [2]
  BRD9 degradation (immunoblot): little to no BRD9 degradation
BRD9 [3]
  BRD9 degradation / cellular potency, in words: superior
[4]
  BRD9:CRBN-DDB1 dimerization, comparison in words: superior; also recorded: effectively induce biochemical association
[4]; [8]
  BRD9:CRB9-DDB1 AUC: 80620
  BRD9:CRB9-DDB1 Cmax: 26.2 nM
[4]; relative to unmodified pomalidomide
  formation of the BRD9:CRBN-DDB1 protein complex: significantly induce formation of the complex
[4]; relative to unmodified thalidomide
  formation of the BRD9:CRBN-DDB1 protein complex: significantly induce formation of the complex
BRD9 [5]; MOLM-13, 100 nM
  time to near complete BRD9 loss: ≤ 1 h
BRD9 [5]; MOLM-13, 100 nM, 24-hour treatment period
  return of BRD9 during treatment: no detectable return
BRD9 [5]; MOLM-13, 4 hour treatment, indicated concentrations, in words
  BRD9 protein level (immunoblot): effectively downregulate BRD9 over a broad range of concentrations; also recorded: effectively downregulating BRD9 protein over a broad range of concentrations
MV411 cell line
  half-maximal anti-proliferative concentration: low nanomolar
  maximal efficacy on cell proliferation: significantly exceeded that of the more selective I-25
TRIM33 (PHD, Bromo.)
  % Ctrl @ 1 μM: 100 % Ctrl
BRD4(2)
  % Ctrl @ 1 μM: 40 % Ctrl
PCAF
  % Ctrl @ 1 μM: 55 % Ctrl
CREBBP
  % Ctrl @ 1 μM: 10 % Ctrl
SMARCA4
  % Ctrl @ 1 μM: 41 % Ctrl
BRDT(2)
  % Ctrl @ 1 μM: 57 % Ctrl
BRD2(2)
  % Ctrl @ 1 μM: 43 % Ctrl
CRBN-DDB1
  IC50: 11.2 nM
[6]
  bromodomain interaction profile: also BRD7 and members of the BET family
BRD9 [7]; [9]
  BRD9 degradation after pretreatment with excess I-BRD9: prevented degradation
  BRD9 degradation after pretreatment with excess lenalidomide: prevented degradation
  BRD9 degradation with co-treatment with carfilzomib: Degradation was abolished
  BRD9 levels after pretreatment with neddylation inhibitor (MLN-4924): rescued BRD9 levels
BRD9 [7]; wild type MM.1S cells, 4 hour treatment, indicated doses
  BRD9 loss (immunoblot): marked dose-dependent BRD9 loss
